# Experimental data as given in US20160361250A1, “ACTIVE INGREDIENTS STIMULATING TYPE 2 AND/OR TYPE 3 HUMAN BETA-DEFENSINS AND COSMETIC OR PHARMACEUTICAL COMPOSITIONS CONTAINING SUCH ACTIVE INGREDIENTS” (BASF Beauty Care Solutions France S.A.S., priority 2002, published 2016).
# Assays:
# [1] = tested on: hBD2; assay: Quantitative RT-PCR of hBD2 expression, 2nd step (dose-effect); type: cell-based, human
# Method: (§1) The actives are then tested on 5 concentrations (from 0.001% to max viability) in quadruplicate on normal human keratinocytes as a monolayer on 96-well culture plates, in a specific medium enriched with calcium and free of serum (CaCl2 1.7 mM) (same conditions as in example 1).
# (§2) After 16 h, the supernatants are collected and cells are dry frozen at −80° C. after rinsing in PBS.
# (§3) Total RNA are extracted using a 96-well extraction kit on silica columns and assayed using a 96-well spectrophotometer at 260 and 280 nm. RNA are diluted to 5 ng/μL.
# (§4) Quantitative RT-PCR in 96 wells on actin, hBD2 and hBD3 is initially carried out on 50 ng of RNA, using a one-step kit containing Sybrgreen, in a fluorescence thermocycler with the same primers as previously (0.5 μM). The amplification program is as follows: 50° C., 30 min; 94° C., 15 min; (94° C., 15 s; 60° C., 30 s; 72° C., 30 s)×50 cycles; 90° C., 1 min; 30° C., 1 min; 50° C. to 95° C. (10 s every ° C.); 14° C., infinite.
# (§5) A study of the fusion graphs makes it possible to verify the specificity of amplified products. The fluorescence graph as a function of the number of cycles gives the C(T) value corresponding to the number of cycles needed to obtain initiation of the fluorescence signal. The more an mRNA is expressed, the lower the C(T) value. Calculation of Sgene=(½)^C(T) for each RNA takes into consideration the exponential increase in the number of copies during amplification. The Sgene hBD2/Sgene actin and Sgene hBD3/Sgene actin ratios can be compared with those of the untreated control to give the percentage stimulation produced.
# (§6) Quantitative RT-PCR makes it possible to obtain a basal value for the defensin expression for untreated controls. The results are therefore expressed as a percentage of the control. IL8, IL1 and MIP3 cytokine levels are given as pg/mL/RNA concentration (in ng/μL).
# (§7) In the same way as in example 2, retinoic acid and retinol were tested for their capacity to stimulate hBD2 and/or hBD3.
# [2] = tested on: hBD3; assay: Quantitative RT-PCR of hBD3 expression, 2nd step (dose-effect); type: cell-based, human
# Method: as §1, §2, §3, §4, §5, §6, §7
# [3] = tested on: animals; details: in vivo
# [4] = tested on: human volunteers; details: in vivo
# [5] = conc. 0.01%, 16 h, untreated control = 100%
structure (smiles),measurement,setting,value
CC1=C(/C=C/C(C)=C/C=C/C(C)=C/CO)C(C)(C)CCC1 [Retinol],effect on hBD2 (in words),[1]; 0.01%,weakly stimulates hBD2
same,"hBD2 expression, percentage of the control",[1]; [5],168%
same,effect on hBD3 (in words),[2]; 0.01%,strongly stimulates hBD3
same,"hBD3 expression, percentage of the control",[2]; [5],17 562%
same,"irritation / allergy, primary skin irritation (in words)",[3],"not inducing any inflammatory, irritation or intolerance reaction"
same,"irritation / allergy, irritant or sensitizing potential (in words)",[4],"not inducing any inflammatory, irritation or intolerance reaction"
